Measurements from patent US10653672B2, “Myogenesis promotor, muscle atrophy inhibitor, medical composition and TAZ activator” (National University Corporation Tokyo Medical and Dental …, priority 2014, dated 2020).
Where “and” joins values, the source holds several entries; their conditions need not be identical. Equal values may be shown once.

Key:
TEAD reporter = assay: Luciferase reporter assay, TEAD reporter; assay type: cell-based; details: Mus musculus, C2C12, 24 h, C2C12 cells expressing reporter and TAZ WT, differentiation medium 24 hours
Method: The effect and its degree on the activity of a reporter, derived from a transcription factor that interacts with TAZ in C2C12 cells, were evaluated. Specifically, C2C12 cells expressing luciferase reporters corresponding to MyoD, TEAD, SMAD and Pax3 and C2C12 cells expressing these luciferase reporters and TAZ were cultured in a culture medium added with IBS008738 or DMSO at a concentration of 10 μM, respectively. […] The line and the error bar indicate the average value and the standard error, *p<0.05, **p<0.01, ns refers to not significant.
Transfection of the luciferase reporters was performed to the C2C12 cells after being plated at 12-well plates (1×10^5 cells/well) and cultured overnight. As the luciferase reporters, pGL3 Myo-184- (MyoD-), 8×GT-IIC-δ51LucII- (TEAD-), 9×CAGA-MLP-(SMAD-), and p(PRS-1/-4)3- (Pax3-) were transfected to the cells alone or with TAZ. These reporter vectors were from Keiji Miyazawa (Yamanashi University), Hiroshi Sasaki (Kumamoto University) and Hiroki Kurihara (The University of Tokyo).
Immediately after the transfection, DMSO or IBS008738 was added at a concentration of 10 μM, respectively. After growing the cells to confluence, the cells were transferred to a differentiation medium with DMSO or IBS008738, and cultured for 24 hours before the luciferase assay.

C2C12 cells [1] = assay: Evaluation of muscle differentiation markers by immunoblotting; assay type: cell-based, mouse; details: 10 μM
Method: (1) C2C12 cells were cultured for 24 hours under growth condition in a culture medium added with IBS008738 or DMSO at a concentration of 10 μM, and switched to differentiation condition and the cultivation was continued. The expression of markers indicating muscle differentiation was determined with a predetermined antibody, on the C2C12 cells immediately after the completion of cultivation under growth condition (0 h), 24 hours after switching to differentiation condition (24 h), 48 hours after switching to differentiation condition (48 h) and 72 hours after switching to differentiation condition (72 h), respectively. Tubulin was used as a loading control (FIG. 3A).

caveolin 3 = assay: Quantitative real-time PCR, caveolin 3; assay type: cell-based, mouse; details: C2C12 cells, 10 μM; for Normarized mRNA abundance, Caveolin3: listed as IBS008738
Method: (§1) (1) Quantitative real-time PCR was performed with C2C12 cells immediately before the induction of muscle formation (0 h), and after culturing under differentiation condition in a culture medium added with IBS008738 or DMSO at a concentration of 10 μM for 24 hours (24 h) and 72 hours (72 h), respectively. […] The line and error bar indicate the average value and the standard error, **p<0.05, and ns refers to not significant.
Evaluation was also performed under the same condition on M-cadherin, calpain 1 and caveolin 3, which are myofusion markers. As a result, there was no increase in the degree of gene transcription in the case with IBS008738.
(§2) The quantitative real-time PCR was performed with SYBER Green (Roche) and ABI7500 Realtime PCR system (Applied Biosystems).

TAZ = assay: Quantitative real-time PCR, TAZ; assay type: cell-based, mouse; details: C2C12 cells, 10 μM; for Normarized mRNA abundance, TAZ: listed as IBS008738
Method: as §1, §2

C2C12 cells [2] = assay: Proliferation of C2C12 cells by MTT method; assay type: cell-based, mouse; details: for Relative cell proliferation: growth condition, day 1 as 1
Method: In order to examine whether IBS008738 as an effect on the proliferation of cells, C2C12 cells were cultured under growth condition for 5 days in a medium added with IBS008738 at 0 μM (not added), 0.1 μM, 1 μM and 10 μM, respectively, and the number of the cells was counted each day by MTT (3-(4, 5-dimethylthiazol-2-yl)-2, 5-diphenyl tetrazolium bromide) method. The counting was performed three times, and the obtained numbers were relativized with the number of day 1 as 1.

C2C12 cells [3] = assay: Immunofluorescence of endogenous MyoD and TAZ in C2C12 cells; assay type: cell-based, mouse; details: 10 μM
Method: Immunostaining of endogenous MyoD and TAZ in C2C12 cells was performed at three stages, i.e., after being cultured in a medium added with IBS008738 or DMSO at a concentration of 10 μM under growth condition for 24 hours, after being cultured under differentiation condition for 24 hours, and after being cultured under differentiation condition for 72 hours (see FIG. 7B). Both MyoD and TAZ existed at each of the three stages. After being cultured under growth condition for 24 hours, MyoD and TAZ were diffusely distributed in the nuclei (top), but formed dots under differentiation condition. After being cultured under differentiation condition for 24 hours, some cells strongly expressed TAZ, whereas other cells expressed more MyoD (middle). After being cultured under differentiation condition for 72 hours, in the single-nuclear cells, TAZ expression decreased while MyoD was still expressed. In the multi-nuclear cells, both TAZ and MyoD were expressed and colocalized in the nuclei (bottom). […] However, at 24 hours under differentiation condition, colocalization of TAZ and MyoD in the single-nuclear cells and generation of cells with two or three nuclei were promoted in the case with IBS008738 as compared with the case with DMSO (middle). […] The immunostaining and the immunofluorescence analysis were performed by the method described in Exp Cell Res 313:1484-1495. The line in the figures is 50 μm.

## Cc1ccc(-n2cnc(/N=C/N3CCOCC3)c2C(=O)c2ccccc2)cc1 [exemplary compound 1]
TEAD reporter
  fold induction at 10 µM: 8.41
C2C12 cells [1]
  decrease in the expression of Pax7 compared with DMSO: faster to decrease
  expression of MHC compared with DMSO: became significant on days 3 and 4
  expression of TAZ: became most significant on day 2
  expression of myogenin compared with DMSO: became stronger after day 2
C2C12 cells [1]; day 1 after the addition
  expression of MyoD compared with DMSO: slightly higher
Caveolin 3; 24 h and 72 h
  degree of gene transcription of caveolin 3: no increase
Caveolin 3; differentiation condition 24 h
  Normarized mRNA abundance, Caveolin3: 0.14 and 0.13
Caveolin 3; differentiation condition 72 h
  Normarized mRNA abundance, Caveolin3: 2.08 and 2.47 and 2.09
TAZ; 24 h and 72 h
  expression of TAZ (gene transcription) compared with DMSO: did not change
TAZ; differentiation condition 24 h
  Normarized mRNA abundance, TAZ: 0.88 and 0.94
TAZ; differentiation condition 72 h
  Normarized mRNA abundance, TAZ: 1.44 and 1.36 and 1.41
C2C12 cells [2]; 0.1 μM, 1 μM and 10 μM, 5 days
  effect on the proliferation of C2C12 cells: does not have an effect
C2C12 cells [2]; 0.1 μM, 24 h
  Relative cell proliferation: 1.00
C2C12 cells [2]; 0.1 μM, 48 h, listed as IBS008738
  Relative cell proliferation: 2.09 and 2.06 and 2.18
C2C12 cells [2]; 0.1 μM, 72 h, listed as IBS008738
  Relative cell proliferation: 5.37 and 4.74 and 4.59
C2C12 cells [2]; 0.1 μM, 120 h, listed as IBS008738
  Relative cell proliferation: 9.01 and 8.76 and 8.78
C2C12 cells [2]; 1 μM, 24 h
  Relative cell proliferation: 1.00
C2C12 cells [2]; 1 μM, 48 h, listed as IBS008738
  Relative cell proliferation: 2.41 and 2.05 and 2.07
C2C12 cells [2]; 1 μM, 72 h, listed as IBS008738
  Relative cell proliferation: 5.11 and 4.54 and 4.46
C2C12 cells [2]; 1 μM, 120 h, listed as IBS008738
  Relative cell proliferation: 9.13 and 8.80 and 8.79
C2C12 cells [2]; 10 μM, 24 h
  Relative cell proliferation: 1.00
C2C12 cells [2]; 10 μM, 48 h, listed as IBS008738
  Relative cell proliferation: 2.09 and 2.07
C2C12 cells [2]; 10 μM, 72 h, listed as IBS008738
  Relative cell proliferation: 4.70 and 4.90 and 4.92
C2C12 cells [2]; 10 μM, 120 h, listed as IBS008738
  Relative cell proliferation: 8.63 and 8.99 and 8.56
C2C12 cells [3]; 24 hours under differentiation condition, compared with DMSO
  colocalization of TAZ and MyoD in the single-nuclear cells and generation of cells with two or three nuclei: promoted
C2C12 cells [3]; 72 hours under differentiation condition, compared with DMSO
  multinuclear cells: remarkably increased
C2C12 cells [3]; growth condition 24 hours
  MyoD and TAZ immunostaining compared with DMSO: no significant difference from the case with DMSO was not observed
